# In patent publication US9050343B2 (ACADIA Pharmaceuticals Inc., priority 2007, dated 2015):
# Values joined by “and” are separate entries in the source; they are usually repeats but may differ in a detail not shown here. Equal entries are not always repeated. Where two headings read alike, the source gives them in different places.
# Tests used:
# [1] = haloperidol 2 mg per day alone or with pimavanserin 20 mg per day
# [2] = test system: catalepsy in rats; assay: Catalepsy assessment; format: in vivo
# Source text: (§1) Male non-Swiss albino (NSA) mice and Sprague-Dawley (SD) rats (Harlan, San Diego, Calif.) served as subjects for the present investigation. Animals were housed in climate-controlled rooms on a 12/12 light dark cycle with on lights at 0600 hr. Rats were housed in groups of two and mice were housed in groups of eight. Food and water was available ad libitum except during experimental procedures.
# In order to generate dose-response curves raw CVs were converted to percentage maximum possible catalepsy (% MPC): % MPC=((CV drug or drug combination−CV vehicle control)/(120−CV vehicle control))*100. […] Each dose or dose combination was assessed in separate groups of rats.
# [3] = test system: amphetamine-induced hyperlocomotion in mice; assay: Amphetamine-induced hyperlocomotor activity assay; format: in vivo; details: for suppression of amphetamine-induced hyperlocomotion: pimavanserin at 0.03 mg/kg sc; for suppression of amphetamine-induced hyperlocomotor activity: antipsychotic combined with a fixed dose of pimavanserin (0.03 mg/kg)
# [4] = test system: dizocilpine-induced hyperlocomotion in mice; assay: Dizocilpine-induced hyperlocomotor activity assay and isobolographic analysis; format: in vivo; details: for ID50: agent alone, sc
# [5] = test system: serum prolactin levels; assay: Prolactin assay (serum prolactin); format: in vivo, rats; details: for serum prolactin levels, dose response: compared to vehicle controls, pimavanserin up to 3 mg/kg, FIG. 20A
# Source text: as §1
# Rats were deeply anesthetized with isoflurane and blood samples were obtained by cardiac puncture, allowed to clot and then centrifuged at 12,000 rpm for 10 min to yield serum for analysis. Serum prolactin levels were quantified using a commercially available enzyme immunoassay kit (ALPCO Diagnostics, Windham, N.H.).
# [6] = test system: prolactin levels; details: haloperidol-treated patients compared to risperidone patients
# [7] = Pimavanserin plasma pharmacokinetics fitted to 1-compartment model; format: in vivo
# Source text: Initial parameters for the simulation were obtained by fitting mean plasma concentration-time data to a 1-compartment model (first order input, no lag time and first order elimination).
# [8] = Brain levels of pimavanserin and haloperidol; details: Pim + Veh
# [9] = Simulation of pimavanserin plasma concentration-time profile, 20 mg once daily; details: initial parameter for simulation, 20 mg once daily oral
# [10] = test system: muscarinic receptors; assay: Activity at muscarinic receptors
# Source text: (§2) Further, the compound lacks potency at the 5HT2B receptor that controls gastrointestinal function and myocardial development.
# [11] = Unbound fraction in plasma; format: in vitro ADME; details: parameter used for occupancy simulation, read-out: fu (unbound fraction in plasma)
# Source text: CR may then be calculated using equation 2. CR=fu*Cpl(t), where fu is the free fraction of drug in plasma and Cpl(t) is the plasma concentration at time t.
# [12] = test system: auto-shaped response in mice; assay: Learning of a simple auto-shaped response; details: intraperitoneal doses up to 32 mg/kg
# [13] = test system: histaminergic receptors; assay: Activity at histaminergic receptors
# Source text: as §2
# [14] = test system: hyperactivity in mice induced by MK-801; assay: MK-801 induced hyperactivity; details: oral doses of 3 and 10 mg/kg
# [15] = test system: DOI induced head twitches in the rat; assay: DOI induced head twitches; details: oral doses of 3 and 10 mg/kg
# [16] = test system: alpha-adrenergic; assay: Alpha-adrenergic antagonist activity
# Source text: as §2
# [17] = test system: radial arm maze in vivo mouse model of cognition; assay: Radial arm maze model of cognition; set-up: species or system mice; details: pimavanserin (1 mg/kg) in combination with risperidone; FIG. 19
# [18] = test system: in vivo mouse model of cognition; assay: Novel object recognition assay; set-up: species or system mice; details: pimavanserin (0.3 mg/kg) in combination with risperidone or olanzapine; FIG. 18
# Protocol: Compounds were administered to mice at one hour post-training (a time-point at which animals normally behaviorally discriminate between novel and familiar objects) and two hours post-training (a time-point at which these animals normally no longer discriminate between objects).
# [19] = biological target: 5HT2B receptor (Homo sapiens, UniProt P41595); assay: Potency at 5HT2B receptor
# Source text: […]. Further, the compound lacks potency at the 5HT2B receptor that controls gastrointestinal function and myocardial development.
# [20] = multiple oral doses; cited from earlier work
# [21] = test system: rat model of deficits in sensory motor gating; assay: Sensory motor gating deficit induced by DOI; details: doses of 1 and 3 mg/kg SC
# [22] = test system: schizophrenic subjects with an acute exacerbation of psychosis; assay: Randomized double blind study in schizophrenic subjects: PANSS and CGI-S; format: in vivo, human
# [23] = initial parameter for simulation, 5 mg once daily oral
# [24] = combined with a fixed dose of pimavanserin (0.03 mg/kg)
# [25] = 14th oral dose of 50 mg, 1-compartment model
# [26] = plasma, 14th oral dose of 50 mg, 1-compartment model
# Chain of 5HT2B receptor (P41595 whole entry): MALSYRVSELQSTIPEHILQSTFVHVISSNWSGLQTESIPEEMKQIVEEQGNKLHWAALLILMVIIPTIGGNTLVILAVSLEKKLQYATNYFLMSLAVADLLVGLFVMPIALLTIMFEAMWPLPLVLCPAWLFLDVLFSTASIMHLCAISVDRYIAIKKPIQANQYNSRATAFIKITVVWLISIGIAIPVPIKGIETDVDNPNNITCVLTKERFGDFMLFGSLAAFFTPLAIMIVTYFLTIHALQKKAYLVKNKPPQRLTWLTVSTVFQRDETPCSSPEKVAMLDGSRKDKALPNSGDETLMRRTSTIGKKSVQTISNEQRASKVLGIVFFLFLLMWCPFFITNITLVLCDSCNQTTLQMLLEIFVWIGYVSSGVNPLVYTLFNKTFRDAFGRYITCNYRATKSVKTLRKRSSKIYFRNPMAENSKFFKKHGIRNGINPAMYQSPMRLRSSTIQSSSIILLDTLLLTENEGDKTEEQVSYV
smiles,measurement,setting,value
"O=C(CCCN1CCC(O)(c2ccc(Cl)cc2)CC1)c1ccc(F)cc1 [Haloperidol, haloperidol]",Mean weight gain,[1],0.7657 kg
same,Final mean weight,[1]; end of study,83.759 kg
same,CD50 (dose that elicits 50% of maximum catalepsy),"[2]; agent alone, ip",0.27 mg/kg
same,CD50,[2]; in the presence of 1 mg/kg pimavanserin sc,0.24 mg/kg
same,CD50,[2]; in the presence of 3 mg/kg pimavanserin sc,0.38 mg/kg
same,CD50,[2]; in the presence of 10 mg/kg pimavanserin sc,0.53 mg/kg
same,suppression of amphetamine-induced hyperlocomotion,[3]; agent alone,dose dependently attenuated hyperactivity produced by amphetamine
same,ID50,"[3]; agent alone, sc, from % MPI",0.012 mg/kg
same,suppression of amphetamine-induced hyperlocomotor activity,[3],enhanced suppression of amphetamine-induced hyperlocomotor activity
same,ID50,[3]; [24],0.0013 mg/kg
same,shift of the dose-response curve,[3]; [24],significantly shifted to the left by a factor of approximately 10
same,ID50,[4],0.07 mg/kg
same,"serum prolactin levels, dose response",[5],dose-related increase in serum prolactin levels
same,magnitude of prolactinemia,"[5]; fixed dose haloperidol (0.1 mg/kg) or risperidone (0.01 mg/kg) in the presence of pimavanserin, FIG. 20B",significantly attenuated
same,serum prolactin levels,"[5]; haloperidol 0.1 mg/kg ip, vehicle 31±3",102 ± 12 ng/mL
same,PRL levels,[6],lower
"CC(C)COc1ccc(CNC(=O)N(Cc2ccc(F)cc2)C2CCN(C)CC2)cc1 [Pimavanserin, N-(1-methylpiperidin-4-yl)-N-(4-fluorophenylmethyl)-N′-(4-(2-methylpropyloxy)phenylmethyl)carbamide]",Absorption rate constant (k01),[7]; [25],0.9197 h⁻¹
same,CL/F,[7]; [25],6.4 L/h
same,Elimination rate constant (k10),[7]; [25],0.0121 h⁻¹
same,half-life,"[7]; plasma, oral, 50 mg",57.3 h
same,Cmax,[7]; [26],89.3 ng/mL
same,Tmax,[7]; [26],4.77 h
same,AUC(0-t),"[7]; plasma, 14th oral dose of 50 mg, 1-compartment model, read-out: AUC (0-24)ss",1890 ng·h/mL
same,Pimavanserin brain levels,[8],23 (±6) nmol/kg
same,K01,[9],0.9197 L/h
same,V/F,[9],2182727 mL
same,activity at the muscarinic receptors,[10],does not have significant activity
same,catalepsy,[2]; doses up to 10 mg/kg,did not elicit catalepsy
same,maximum CV (catalepsy value),"[2]; doses up to 10 mg/kg, vehicle 6.8±0.9 sec",10.5 ± 2.4 s
same,fraction unbound,[11],0.05
same,learning of a simple auto-shaped response,[12],failed to disrupt learning of a simple auto-shaped response
same,activity at the histaminergic receptors,[13],does not have significant activity
same,attenuation of hyperactivity induced by MK-801,[14],effective
same,DOI induced head twitches,[15],effective
same,alpha-adrenergic antagonist activities,[16],lacks the alpha-adrenergic antagonist activities
same,suppression of amphetamine-induced hyperlocomotion,[3]; agent alone,failed to suppress hyperlocomotion produced by amphetamine
same,working memory errors after repeated trials,[17],improved the cognitive deficit induced by risperidone
same,ID50,[4],0.09 mg/kg
same,percent novel object recognition,[18],reverses novel object recognition impairment caused by risperidone and olanzapine
same,potency at the 5HT2B receptor,[19],lacks potency
same,"oral clearance, previous reported value",[20],25.2 L/h
same,gating deficit induced by DOI,[21],potently reversed the gating deficit induced by DOI
same,serum prolactin concentrations,"[5]; 3 mg/kg pimavanserin sc, 60 min, below the limit of detection, value of 15 ng/mL assigned, vehicle 31±3",15 ± 0 ng/mL
same,"serum prolactin levels, dose response",[5],did not significantly elevate serum prolactin levels
"Cc1nc2n(c(=O)c1CCN1CCC(c3noc4cc(F)ccc34)CC1)CCCC2 [Risperidone, risperidone]",ID50,[4],0.0045 mg/kg
same,effectiveness compared with other treatments,[22]; low dose risperidone (2 mg per day),significantly less effective than the other treatments
same,mean change in PANNS score,"[22]; risperidone 2 mg per day, alone or co-administered with pimavanserin 20 mg per day",16.6 points
same,K01,[23],0.4403 h⁻¹
same,V1/F,[23],60222 mL
CC(N)Cc1ccccc1 (stereo not drawn) [amphetamine],total distance traveled (DT),"[3]; amphetamine 3 mg/kg ip, 15 min session, vehicle controls 876±42 cm",2764±230 cm
O=C1CCc2ccc(OCCCCN3CCN(c4cccc(Cl)c4Cl)CC3)cc2N1 [aripiprazole],suppression of amphetamine-induced hyperlocomotion,[3]; agent alone,dose dependently attenuated hyperactivity produced by amphetamine
same,suppression of amphetamine-induced hyperlocomotor activity,[3],enhanced suppression of amphetamine-induced hyperlocomotor activity
same,shift of the dose-response curve,[3]; [24],significantly shifted to the left
C[C@]12N[C@H](Cc3ccccc31)c1ccccc12 [dizocilpine],total distance traveled (DT),"[4]; dizocilpine 0.3 mg/kg ip, vehicle controls 792±40 cm, 649±67 cm",2227±116 cm and 2020±223 cm
OCCOCCN1CCN(C2=Nc3ccccc3Sc3ccccc32)CC1 [quetiapine],suppression of amphetamine-induced hyperlocomotion,[3]; agent alone,dose dependently attenuated hyperactivity produced by amphetamine
same,suppression of amphetamine-induced hyperlocomotor activity,[3],enhanced suppression of amphetamine-induced hyperlocomotor activity
same,shift of the dose-response curve,[3]; [24],shifted to the left
